Data: PMC12396409, “Screening and hit evaluation of a microbial metabolite library against the pathogenic Plasmodium falciparum and Toxoplasma gondii parasites” (International Journal for Parasitology: Drugs and Drug …, 2025)
*1 amine or outer side, *2 acyl side, *3 side chain or, on linkers, in order; H or OH if unused. Where a SMILES comes first, the peptide text is derived from it. Bridges are numbered along the chain shown (N, C = ends). [ ]: non-standard residue; d: D form. The star is where a group is joined. Orn(4R-OH,5R-OH) = O=C([C@H](C[C@@H](O)[C@@H](O)N[*:3])N[*:1])[*:2]; Tetradecanoyl(10R,12S-Me2) = CC[C@H](C)C[C@H](C)CCCCCCCCC(=O)*; hTyr(3S-OH,4S-OH) = N[C@H](C(=O)O)[C@H](O)[C@@H](O)c1ccc(O)cc1; Gln(3R-OH) = NC(=O)C[C@@H](O)[C@H](N)C(=O)O; Pro(3S-OH) = O=C(O)[C@H]1NCC[C@@H]1O; Hyp = O=C(O)[C@@H]1C[C@@H](O)CN1

How the values were obtained:
[1] = system: T. gondii RH strain (RH-Tub-eYFP) tachyzoites; experiment: microbe, parasite or virus in culture; assay type: cell-based, Toxoplasma gondii; conditions: 72 h; for Tg_72h_%Growth_Rep1: replicate 1; for Tg_72h_%Growth_Rep2: replicate 2
[2] = system: P. falciparum 3D7 parasites; experiment: P. falciparum growth inhibition assay, 1-cycle (72 h treatment), SYBR DNA staining (library screen at 2 μg/mL and dose-response); assay type: cell-based, Plasmodium falciparum; conditions: for Pf_72h_%Growth_Rep1: replicate 1; for Pf_72h_%Growth_Rep2: replicate 2
[3] = system: P. falciparum 3D7 parasites; experiment: P. falciparum growth inhibition assay, 2-cycle (120 h treatment), delayed-death screen and dose-response; assay type: cell-based, Plasmodium falciparum; conditions: for Pf_120h_%Growth_Rep1: replicate 1; for Pf_120h_%Growth_Rep2: replicate 2
[4] = T. gondii, parasite screen 2 μg/mL, % growth
[5] = P. falciparum, 72 h, parasite screen 2 μg/mL, % growth
[6] = P. falciparum, 120 h, parasite screen 2 μg/mL, % growth
[7] = library screen at 2 μg/mL, % growth
[8] = library screen at 2 μg/mL, 72 h, % growth
[9] = library screen at 2 μg/mL, 120 h, % growth
[10] = P. falciparum, 72 h, screen at 2 μg/mL
[11] = P. falciparum, 120 h, screen at 2 μg/mL
[12] = T. gondii, parasite screen at 2 μg/mL, % growth
[13] = P. falciparum 3D7, 72 h, parasite screen at 2 μg/mL, % growth
[14] = P. falciparum 3D7, 120 h, parasite screen at 2 μg/mL, % growth

Q: With `CC[C@H](C)C[C@H](C)CCCCCCCCC(=O)N[C@H]1C[C@@H](O)[C@@H](O)NC(=O)[C@@H]2[C@@H](O)CCN2C(=O)[C@H]([C@H](O)CC(N)=O)NC(=O)[C@H]([C@H](O)[C@@H](O)c2ccc(O)cc2)NC(=O)[C@@H]2C[C@@H](O)CN2C(=O)[C@H]([C@@H](C)O)NC1=O` [Pneumocandin B0] ({Tetradecanoyl(10R,12S-Me2)}-[Orn(4R-OH,5R-OH)]T[Hyp][hTyr(3S-OH,4S-OH)][Gln(3R-OH)][Pro(3S-OH)]; lactam 1-C) as the compound, how does the Tg_72h_%Growth_Rep1 [1, 4] read?
A: The Tg_72h_%Growth_Rep1 was 104.00%.

Q: And the Tg_72h_%Growth_Rep2 [1, 4]?
A: The Tg_72h_%Growth_Rep2 was 85.61%.

Q: What about the Pf_72h_%Growth_Rep1 [2, 5] of the same compound?
A: The Pf_72h_%Growth_Rep1 was 84.80%.

Q: What about the Pf_72h_%Growth_Rep2 [2, 5] of the same compound?
A: The Pf_72h_%Growth_Rep2 was 90.52%.

Q: What about the Pf_120h_%Growth_Rep1 [3, 6] of the same compound?
A: Its Pf_120h_%Growth_Rep1 is 81.62%.

Q: And the Pf_120h_%Growth_Rep2 [3, 6]?
A: Its Pf_120h_%Growth_Rep2 is 136.49%.

Q: With `CC1=CCCC(C)C(O)C(C)C(O)CCC=CC(C)C(O)C=CC(C)C(O)C(C)=CC(O[C@H]2O[C@H](CO)[C@@H](O)[C@H](O)[C@@H]2O)C(O)CC(O)CC(O)CC(O)C(C)C(O)C(C)C(O)CC(O)CC(O)C=CCC(C(C)C(O)CCCN)OC1=O` (stereo partly drawn) [Desertomycin A] as the compound, how does the Tg_72h_%Growth_Rep1 [1, 7] read?
A: Its Tg_72h_%Growth_Rep1 is 97.84%.

Q: What about the Tg_72h_%Growth_Rep2 [1, 7] of the same compound?
A: Its Tg_72h_%Growth_Rep2 is 106.51%.

Q: And the Pf_72h_%Growth_Rep1 [2, 8]?
A: The Pf_72h_%Growth_Rep1 was 84.25%.

Q: What about the Pf_72h_%Growth_Rep2 [2, 8] of the same compound?
A: The Pf_72h_%Growth_Rep2 was 90.28%.

Q: And the Pf_120h_%Growth_Rep1 [3, 9]?
A: The Pf_120h_%Growth_Rep1 was 93.27%.

Q: And the Pf_120h_%Growth_Rep2 [3, 9]?
A: Its Pf_120h_%Growth_Rep2 is 101.55%.

Q: How did the Tg_72h_%Growth_Rep1 ([1]; T. gondii, screen at 2 μg/mL) turn out when `C=C1C(=O)C[C@@H]2[C@H]3CC[C@@H](C(=O)O)[C@@]12CC3(C)C` [Terrecyclic Acid] was run?
A: The Tg_72h_%Growth_Rep1 was 40.31%.

Q: And the Tg_72h_%Growth_Rep2 ([1]; T. gondii, screen at 2 μg/mL)?
A: Its Tg_72h_%Growth_Rep2 is 50.53%.

Q: What about the Pf_72h_%Growth_Rep1 [2, 10] of the same compound?
A: The Pf_72h_%Growth_Rep1 was 17.94%.

Q: And the Pf_72h_%Growth_Rep2 [2, 10]?
A: Its Pf_72h_%Growth_Rep2 is 13.49%.

Q: What about the Pf_120h_%Growth_Rep1 [3, 11] of the same compound?
A: The Pf_120h_%Growth_Rep1 was 35.11%.

Q: And the Pf_120h_%Growth_Rep2 [3, 11]?
A: Its Pf_120h_%Growth_Rep2 is 10.18%.

Q: How did the Tg_72h_%Growth_Rep1 ([1]; T. gondii, screen at 2 μg/mL) turn out when `CCCNC[C@]1(O)[C@H](C)O[C@@H](O[C@H]2[C@H](C)[C@@H](O[C@@H]3O[C@H](C)C[C@H](N(C)C)[C@H]3O)[C@](C)(O)C[C@@H](C)CN[C@H](C)[C@@H](O)[C@](C)(O)[C@@H](CC)OC(=O)[C@@H]2C)C[C@@]1(C)OC` [Tulathromycin, reference compound] was run?
A: Its Tg_72h_%Growth_Rep1 is 76.92%.

Q: And the Tg_72h_%Growth_Rep2 ([1]; T. gondii, screen at 2 μg/mL)?
A: Its Tg_72h_%Growth_Rep2 is 80.94%.

Q: What about the “1) Growth (%) at 72 h” value ([2]; P. falciparum, 2 μg/mL, 72 h) of the same compound?
A: Its value is 33.53%.

Q: And the Pf_72h_%Growth_Rep1 [2, 10]?
A: The Pf_72h_%Growth_Rep1 was 33.36%.

Q: And the Pf_72h_%Growth_Rep2 [2, 10]?
A: The Pf_72h_%Growth_Rep2 was 33.69%.

Q: What about the “2) Growth (%) at 120 h” value ([3]; P. falciparum, 2 μg/mL, 120 h) of the same compound?
A: Its value is 16.75%.

Q: What about the Pf_120h_%Growth_Rep1 [3, 11] of the same compound?
A: The Pf_120h_%Growth_Rep1 was 21.75%.

Q: And the Pf_120h_%Growth_Rep2 [3, 11]?
A: The Pf_120h_%Growth_Rep2 was 11.74%.

Q: What about the “3) Fold change (72 h/120 h)” value ([3]; P. falciparum, growth at 72 h / growth at 120 h, 2 μg/mL) of the same compound?
A: Its value is 2.0.

Q: Which Tg_72h_%Growth_Rep1 [1, 4] does the source give for `CS[C@H]1SC[C@H]2C(=O)N(C)[C@@H](C(C)C)C(=O)OC[C@@H](NC(=O)c3cnc4ccccc4n3)C(=O)N[C@@H](C)C(=O)N(C)[C@@H]1C(=O)N(C)[C@@H](C(C)C)C(=O)OC[C@@H](NC(=O)c1cnc3ccccc3n1)C(=O)N[C@@H](C)C(=O)N2C` [Quinomycin A] here?
A: Its Tg_72h_%Growth_Rep1 is -0.75%.

Q: And the Tg_72h_%Growth_Rep2 [1, 4]?
A: The Tg_72h_%Growth_Rep2 was -0.09%.

Q: And the Pf_72h_%Growth_Rep1 [2, 5]?
A: The Pf_72h_%Growth_Rep1 was 8.36%.

Q: And the Pf_72h_%Growth_Rep2 [2, 5]?
A: The Pf_72h_%Growth_Rep2 was -0.61%.

Q: And the Pf_120h_%Growth_Rep1 [3, 6]?
A: Its Pf_120h_%Growth_Rep1 is 15.40%.

Q: What about the Pf_120h_%Growth_Rep2 [3, 6] of the same compound?
A: Its Pf_120h_%Growth_Rep2 is -11.60%.

Q: `Cn1c(=O)/c(=C/c2ccccc2)[nH]c(=O)/c1=C/c1ccccc1` [BIA-P1156] was tested. Which Tg_72h_%Growth_Rep1 [1, 12] did it give?
A: Its Tg_72h_%Growth_Rep1 is 116.90%.

Q: What about the Tg_72h_%Growth_Rep2 [1, 12] of the same compound?
A: Its Tg_72h_%Growth_Rep2 is 94.03%.

Q: What about the Pf_72h_%Growth_Rep1 [2, 13] of the same compound?
A: The Pf_72h_%Growth_Rep1 was 84.26%.

Q: And the Pf_72h_%Growth_Rep2 [2, 13]?
A: The Pf_72h_%Growth_Rep2 was 90.89%.

Q: What about the Pf_120h_%Growth_Rep1 [3, 14] of the same compound?
A: Its Pf_120h_%Growth_Rep1 is 81.04%.

Q: What about the Pf_120h_%Growth_Rep2 [3, 14] of the same compound?
A: Its Pf_120h_%Growth_Rep2 is 137.39%.

Q: With `CC(C)=C[C@H]1C[C@H](C)[C@]2(CC[C@]3(C)C[C@@H]4C(C)=CC(=O)[C@@H]4/C(C=O)=C\C[C@H]32)O1` [Anhydroophiobolin A] as the compound, how does the Tg_72h_%Growth_Rep1 [1, 7] read?
A: The Tg_72h_%Growth_Rep1 was 154.62%.

Q: And the Tg_72h_%Growth_Rep2 [1, 7]?
A: The Tg_72h_%Growth_Rep2 was 91.26%.

Q: And the Pf_72h_%Growth_Rep1 [2, 8]?
A: Its Pf_72h_%Growth_Rep1 is 9.46%.

Q: And the Pf_72h_%Growth_Rep2 [2, 8]?
A: The Pf_72h_%Growth_Rep2 was 6.48%.

Q: What about the Pf_120h_%Growth_Rep1 [3, 9] of the same compound?
A: The Pf_120h_%Growth_Rep1 was 0.81%.

Q: What about the Pf_120h_%Growth_Rep2 [3, 9] of the same compound?
A: Its Pf_120h_%Growth_Rep2 is -1.29%.

Q: For `CS(=O)(=O)c1ccc([C@@H](O)[C@H](N)CF)cc1` [Florfenicol amine], which Tg_72h_%Growth_Rep1 [1, 7] is on record?
A: The Tg_72h_%Growth_Rep1 was 102.85%.

Q: What about the Tg_72h_%Growth_Rep2 [1, 7] of the same compound?
A: The Tg_72h_%Growth_Rep2 was 100.85%.

Q: What about the Pf_72h_%Growth_Rep1 [2, 8] of the same compound?
A: The Pf_72h_%Growth_Rep1 was 83.39%.

Q: And the Pf_72h_%Growth_Rep2 [2, 8]?
A: The Pf_72h_%Growth_Rep2 was 89.53%.

Q: What about the Pf_120h_%Growth_Rep1 [3, 9] of the same compound?
A: Its Pf_120h_%Growth_Rep1 is 94.89%.

Q: And the Pf_120h_%Growth_Rep2 [3, 9]?
A: The Pf_120h_%Growth_Rep2 was 93.06%.
